Measurements taken from ChEMBL document CHEMBL1148688, “4-Aryl-5-cyano-2-aminopyrimidines as VEGF-R2 inhibitors: synthesis and biological evaluation” (Bioorg Med Chem Lett, 2007).

What was measured:
[1] = target: Cyclin-dependent kinase 1 (Homo sapiens, UniProt P06493); test: Inhibition of CDK1 activity
[2] = Half life in nude mouse at 100 mg/kg, po; format: ADME, organism-based; parameters: dose 100 mg/kg, route oral; settings: in vivo
Mus musculus [3] = test: Decrease in body weight in C57BL/6 mouse at 100 to 175 mg/kg, po; settings: in vivo
[4] = Oral bioavailability in nude mouse at 3 mg/kg; format: ADME, organism-based; settings: in vivo
Mus musculus [5] = test: Drug level in nude mouse plasma at 100 mg/kg, po; format: ADME, organism-based; parameters: dose 100 mg/kg, route oral; settings: in vivo
[6] = target: Vascular endothelial growth factor receptor 2 (Homo sapiens, UniProt P35968); test: Inhibition of VEGFR2 activity
Sequence of Vascular endothelial growth factor receptor 2 (P35968 whole entry): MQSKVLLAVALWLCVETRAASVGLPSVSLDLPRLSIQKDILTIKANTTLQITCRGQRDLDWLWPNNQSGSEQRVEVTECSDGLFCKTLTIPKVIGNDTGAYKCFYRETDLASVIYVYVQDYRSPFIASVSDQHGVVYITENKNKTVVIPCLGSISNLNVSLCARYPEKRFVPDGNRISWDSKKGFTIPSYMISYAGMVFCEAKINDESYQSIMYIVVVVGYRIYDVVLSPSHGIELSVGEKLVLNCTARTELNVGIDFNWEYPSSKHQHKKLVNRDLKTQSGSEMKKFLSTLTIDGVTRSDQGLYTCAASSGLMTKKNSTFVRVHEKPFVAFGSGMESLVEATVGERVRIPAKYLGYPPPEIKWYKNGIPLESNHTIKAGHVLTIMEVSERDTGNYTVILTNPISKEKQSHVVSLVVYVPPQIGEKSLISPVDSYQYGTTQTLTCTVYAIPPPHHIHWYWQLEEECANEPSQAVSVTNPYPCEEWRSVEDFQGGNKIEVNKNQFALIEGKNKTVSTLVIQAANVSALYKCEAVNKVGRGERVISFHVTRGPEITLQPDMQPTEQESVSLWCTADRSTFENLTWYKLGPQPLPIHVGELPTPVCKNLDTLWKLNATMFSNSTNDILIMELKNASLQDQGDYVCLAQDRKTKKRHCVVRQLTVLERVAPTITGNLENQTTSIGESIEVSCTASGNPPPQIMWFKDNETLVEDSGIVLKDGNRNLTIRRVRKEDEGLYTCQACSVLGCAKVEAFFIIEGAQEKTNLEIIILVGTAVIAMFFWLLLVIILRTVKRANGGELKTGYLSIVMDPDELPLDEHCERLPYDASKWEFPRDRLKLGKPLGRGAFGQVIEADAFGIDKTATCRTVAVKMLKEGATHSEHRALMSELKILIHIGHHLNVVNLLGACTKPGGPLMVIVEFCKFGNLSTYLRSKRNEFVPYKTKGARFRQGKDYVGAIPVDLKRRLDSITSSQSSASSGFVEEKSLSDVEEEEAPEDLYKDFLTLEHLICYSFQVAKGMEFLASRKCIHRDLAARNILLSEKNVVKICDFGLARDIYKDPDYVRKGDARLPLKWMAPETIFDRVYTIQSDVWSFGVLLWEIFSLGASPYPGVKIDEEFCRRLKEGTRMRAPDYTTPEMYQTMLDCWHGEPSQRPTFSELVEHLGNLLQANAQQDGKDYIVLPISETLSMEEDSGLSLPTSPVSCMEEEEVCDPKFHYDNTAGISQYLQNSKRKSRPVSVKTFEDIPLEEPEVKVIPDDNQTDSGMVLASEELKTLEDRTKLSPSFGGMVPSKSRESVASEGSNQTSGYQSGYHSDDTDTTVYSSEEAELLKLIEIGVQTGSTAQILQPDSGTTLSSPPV

[7] = Area under curve in nude mouse at 3 mg/kg; format: ADME, organism-based; parameters: dose 3 mg/kg; settings: in vivo

Sequence of Cyclin-dependent kinase 1 (P06493 whole entry): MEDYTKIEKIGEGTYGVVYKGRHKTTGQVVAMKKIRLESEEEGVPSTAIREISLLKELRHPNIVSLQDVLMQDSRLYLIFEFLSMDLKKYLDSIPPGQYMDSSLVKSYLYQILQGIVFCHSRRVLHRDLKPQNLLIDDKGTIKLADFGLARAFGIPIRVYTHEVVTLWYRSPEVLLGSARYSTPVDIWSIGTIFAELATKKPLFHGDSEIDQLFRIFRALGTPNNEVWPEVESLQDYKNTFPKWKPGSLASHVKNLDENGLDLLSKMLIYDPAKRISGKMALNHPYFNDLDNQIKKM

SMILES	IC50 [1] [nM]	IC50 [6] [nM]	further results
CCc1nccn1CCc1ccc(Nc2ncc(C#N)c(-c3ccc(C(C)(C)N)cc3)n2)cc1	4800	94	–
Cc1cc2cc(Nc3ncc(C#N)c(-c4ccccc4)n3)ccc2[nH]1	3300	410	–
N#Cc1cnc(Nc2ncccn2)nc1-c1ccccc1	> 10000	> 10000	–
N#Cc1cnc(Nc2ccc(Cl)cc2)nc1-c1ccccc1	> 10000	> 10000	–
COc1ccccc1Nc1ncc(C#N)c(-c2ccccc2)n1	> 10000	> 10000	–
N#Cc1cnc(Nc2ccc(CCO)cc2)nc1-c1ccc(S(N)(=O)=O)cc1	1900	200	–
N#Cc1cnc(Nc2ccc(CCO)cc2)nc1-c1nc2ccccc2s1	560	340	–
CC(C)(C)c1nc(Nc2ccc(CCO)cc2)ncc1C#N	1100	1600	–
CC(C)(N)c1ccc(-c2nc(Nc3ccc(CCO)cc3)ncc2C#N)cc1	1600	52	–
COc1cc(Nc2ncc(C#N)c(-c3ccccc3)n2)ccc1CN1CCCC1	9000	91	–
N#Cc1cnc(Nc2ccc(CCO)cc2)nc1-c1cc2ccccc2[nH]1	1700	1400	–
N#Cc1cnc(Nc2ccccc2Cl)nc1-c1ccccc1	> 10000	> 10000	–
CN1CCN(CCc2ccc(Nc3ncc(C#N)c(-c4ccc(C(C)(C)N)cc4)n3)cc2)CC1	5600	21	–
N#Cc1cnc(Nc2ccccc2)nc1-c1ccccc1	> 10000	1000	–

The next lines start with results.

IC50 [1] [nM]	IC50 [6] [nM]	SMILES	further results
4100	27	CC(C)(N)c1ccc(-c2nc(Nc3ccc(CCN4CCOCC4)cc3)ncc2C#N)cc1	half-life [2]: 7 h; Activity (Mus musculus [3]): Not Active; bioavailability [4]: 44%; concentration (Mus musculus [5]): 12 µM; AUC [7]: 15.6 µM·h
5700	55	CC(C)(N)c1ccc(-c2nc(Nc3cccc(CCN4CCOCC4)c3)ncc2C#N)cc1	–
6200	61	N#Cc1cnc(Nc2ccc(CN3CCCC3)cc2)nc1-c1ccccc1	–
6500	110	N#Cc1cnc(Nc2ccc(CCN3CCCC3)cc2)nc1-c1ccccc1	–
2100	180	N#Cc1cnc(Nc2ccc(CCC(=O)N3CCOCC3)cc2)nc1-c1ccccc1	–
2000	360	N#Cc1cnc(Nc2cccc(CN3CCOCC3)c2)nc1-c1ccccc1	–
4200	380	COc1cccc(Nc2ncc(C#N)c(-c3ccccc3)n2)c1	–
3500	1000	Cc1ccc(Nc2ncc(C#N)c(-c3ccccc3)n2)cc1	–
> 10000	10000	N#Cc1cnc(Nc2nc3ccccc3[nH]2)nc1-c1ccccc1	–
1500	150	COc1ccc(-c2nc(Nc3ccc(CCO)cc3)ncc2C#N)cc1	–
2000	180	N#Cc1cnc(Nc2ccc(CCO)cc2)nc1-c1ccc(Br)cc1	–
2700	410	CC(C)(O)c1ccc(-c2nc(Nc3ccc(CCO)cc3)ncc2C#N)cc1	–
21000	450	CC(C)(N)c1ccc(-c2nc(Nc3ccc(OCCN4CCOCC4)cc3)ncc2C#N)cc1	–
470	82	N#Cc1cnc(Nc2ccc(CCO)cc2)nc1-c1cccs1	–
3300	490	COc1ccc(Nc2ncc(C#N)c(-c3ccccc3)n2)cc1	–
410	90	N#Cc1cnc(Nc2ccc(CCO)cc2)nc1-c1ccc2[nH]ccc2c1	–
2000	200	N#Cc1cnc(Nc2ccc(CCO)cc2)nc1-c1ccccc1	–
> 10000	2100	N#Cc1cnc(Nc2ccc3ccccc3c2)nc1-c1ccccc1	–
